Laboratory results reported in publication PMC9785542, “Discovery of 1-Benzhydryl-Piperazine-Based HDAC Inhibitors with Anti-Breast Cancer Activity: Synthesis, Molecular Modeling, In Vitro and In Vivo Biological Evaluation” (Pharmaceutics, 2022).
Several values for one entry are separate records, joined by “and”; a condition that tells them apart may be missing. Identical values can stand only once. Like-named read-outs stand apart in the source and are kept apart here.

What was measured:
[1] = molecular target: T1, Human recombinant C-terminal His-tag-HDAC8 (Homo sapiens, UniProt Q9BY41); test: HDAC-Glo I/II bioluminogenic enzyme assay, HDAC8; format: biochemical; conditions: mean ± SD of three independent experiments; read-out: HDAC Inhibition, IC50 ± SD, HDAC8
T1 construct: His (C); purchased BPS Bioscience 50008
T1 sequence (Q9BY41 1-377): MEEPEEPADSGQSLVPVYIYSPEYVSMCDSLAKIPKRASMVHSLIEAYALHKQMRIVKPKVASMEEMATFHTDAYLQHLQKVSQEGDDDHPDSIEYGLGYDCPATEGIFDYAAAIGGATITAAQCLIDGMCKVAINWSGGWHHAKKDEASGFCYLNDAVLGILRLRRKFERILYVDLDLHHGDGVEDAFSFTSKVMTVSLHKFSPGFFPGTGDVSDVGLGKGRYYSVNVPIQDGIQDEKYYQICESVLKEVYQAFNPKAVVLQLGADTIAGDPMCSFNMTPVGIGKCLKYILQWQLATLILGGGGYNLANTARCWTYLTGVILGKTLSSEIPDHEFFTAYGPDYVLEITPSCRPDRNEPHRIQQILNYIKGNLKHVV

MDA-MB-231 cells [2] = test: Cell viability (MTT) assay, MDA-MB-231; format: cell-based, human; conditions: read-out: Cytotoxic activity IC50 ± SD, MDA-MB-231
Experimental: Human breast adenocarcinoma cells (MCF-7, ATCC® HTB-22™) and triple-negative breast cancer cells (MDA-MB-231, ATCC® HTB-26™) were obtained from the American Type Culture Collection (Rockville, MD, USA). Cells were maintained as a monolayer culture in DMEM:Ham’s 12 (1:1) medium (Sigma-Aldrich, St. Louis, MO, USA) supplemented with penicillin (192 U/mL), streptomycin (200 µg/mL), and 10% of heat-inactivated fetal calf serum (FCS). Cells were grown at 37 °C in 5% CO2 and humidified air atmosphere, by twice weekly subculture.
Cytotoxic activity of synthesized 1-benzhydryl-piperazine-based HDAC inhibitors was assessed on MDA-MB-231 and MCF-7 cells using an MTT assay. MDA-MB-231 (5 × 10^3 cells/well) and MCF-7 (5 × 10^3 cells/well) were treated with synthesized compounds in six different concentrations (100, 50, 25, 12.5, 6.25, and 3.13 μM), and each concentration was added in five replicates. MTT solution (3-(4,5-dimethylthiazol-2-yl)-2,5-diphenyltetrazolium bromide) (Sigma-Aldrich, St. Louis, USA) was added to each well (20 µL) after 48 h. After 4 h of incubation, 100 μL of 10% SDS was added in each well and incubated at 37 °C. On the next day, the absorbance at 570 nm was recorded. The ratio of absorbance (570 nm) values between treated and control cells multiplied by 100 was used to calculate cell survival (%). The concentration of synthesized HDAC inhibitors that reduced cell viability by 50% was defined as the IC50 value, and was compared to the vehicle control.

MDA-MB-231 cells [3] = test: Apoptosis assay, Annexin V-FITC/7-AAD flow cytometry; format: cell-based, human; conditions: for early apoptotic cells: 72 h
Experimental: Examined breast cancer cells (MDA-MB-231) were stained with annexin V–fluorescein isothiocyanate/and 7AAD (BD Pharmingen, San Diego, CA, USA), and the samples were prepared following the specifications given by manufacturer. The population of apoptotic cells was analyzed by flow cytometry using a FACS Calibur cytometer and Cell Quest computer software (Becton Dickinson, Heidelberg, Germany).

[4] = molecular target: T2, Human recombinant N-ter-GST-HDAC-6 (Homo sapiens, UniProt Q9UBN7); test: HDAC-Glo I/II bioluminogenic enzyme assay, HDAC6; format: biochemical; design: GST (N); purchased BPS Bioscience 50006; conditions: for % HDAC6 Inhibition at 5 μM / inhibition at 5 µM: mean ± standard error of triplicate; for IC50: mean ± SD of three independent experiments, read-out: HDAC Inhibition, IC50 ± SD, HDAC6; for Selectivity Ratio HDAC1/6 / Selectivity Ratio HDAC3/6 / Selectivity Ratio HDAC8/6: ratio of IC50 values
T2 sequence (Q9UBN7 1-1215): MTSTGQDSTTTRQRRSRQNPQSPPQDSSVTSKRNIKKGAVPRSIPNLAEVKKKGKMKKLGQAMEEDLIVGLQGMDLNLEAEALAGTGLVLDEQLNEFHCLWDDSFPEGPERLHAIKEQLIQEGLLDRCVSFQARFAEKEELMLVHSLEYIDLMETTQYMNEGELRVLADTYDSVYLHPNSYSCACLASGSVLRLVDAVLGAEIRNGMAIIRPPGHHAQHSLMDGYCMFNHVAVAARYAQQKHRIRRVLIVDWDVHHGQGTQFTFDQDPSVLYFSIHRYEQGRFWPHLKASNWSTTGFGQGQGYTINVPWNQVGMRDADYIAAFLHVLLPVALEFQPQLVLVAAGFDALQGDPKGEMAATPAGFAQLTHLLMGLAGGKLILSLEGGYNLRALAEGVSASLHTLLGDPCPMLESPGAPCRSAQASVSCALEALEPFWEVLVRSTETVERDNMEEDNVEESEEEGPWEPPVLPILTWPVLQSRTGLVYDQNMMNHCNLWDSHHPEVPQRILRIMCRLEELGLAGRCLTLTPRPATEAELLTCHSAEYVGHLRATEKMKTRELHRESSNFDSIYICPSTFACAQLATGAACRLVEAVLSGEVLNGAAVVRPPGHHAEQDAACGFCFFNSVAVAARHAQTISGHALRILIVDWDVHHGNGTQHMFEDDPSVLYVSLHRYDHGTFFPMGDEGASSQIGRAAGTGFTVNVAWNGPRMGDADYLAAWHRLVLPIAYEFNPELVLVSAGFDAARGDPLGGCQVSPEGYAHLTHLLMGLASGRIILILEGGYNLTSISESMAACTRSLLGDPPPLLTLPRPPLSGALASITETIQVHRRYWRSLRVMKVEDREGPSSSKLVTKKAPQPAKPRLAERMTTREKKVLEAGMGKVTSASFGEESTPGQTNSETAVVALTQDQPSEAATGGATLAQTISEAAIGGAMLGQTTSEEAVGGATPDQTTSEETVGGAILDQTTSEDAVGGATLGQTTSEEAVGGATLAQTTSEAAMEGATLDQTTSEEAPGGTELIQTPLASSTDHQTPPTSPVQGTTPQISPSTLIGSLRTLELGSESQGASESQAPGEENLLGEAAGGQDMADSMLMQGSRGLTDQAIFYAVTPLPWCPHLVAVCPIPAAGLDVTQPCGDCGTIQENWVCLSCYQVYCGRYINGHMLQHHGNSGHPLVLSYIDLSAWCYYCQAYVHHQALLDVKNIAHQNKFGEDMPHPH

SMILES | IC50 [1] | IC50 (MDA-MB-231 cells [2]; Homo sapiens, MDA-MB-231, 48 h) | late apoptotic cell population (MDA-MB-231 cells [3]; 5 μM, control 1.13%) | early apoptotic cell population (MDA-MB-231 cells [3]; 5 μM, control 1.27%) | early apoptotic cells (MDA-MB-231 cells [3]; IC50 concentration) | % HDAC6 Inhibition at 5 μM [4] | inhibition at 5 µM [4] | IC50 [4] | Selectivity Ratio HDAC1/6 [4] | Selectivity Ratio HDAC3/6 [4] | Selectivity Ratio HDAC8/6 [4] | programmed cell death (MDA-MB-231 cells [3]; IC50 concentration, 24 h) | IC50 (MDA-MB-231 cells [2]; 48 h)
O=C(CCCCCCCN1CCN(C(c2ccccc2)c2ccccc2)CC1)NO [Compound 8b, 8-(4-(diphenylmethyl)-piperazin-1-yl)-N-hydroxyoctanamide] | 245 ± 2 nM | 5420 ± 770 nM | 0.45% | 4.13% | around 45% | 97.7 ± 0.2% | > 90% | 124 ± 13 nM | 3.3 | 1.7 | 2 | – | –
O=C(CCCCCCN1CCN(C(c2ccccc2)c2ccccc2)CC1)NO [Compound 7b, 7-(4-(diphenylmethyl)-piperazin-1-yl)-N-hydroxyheptanamide] | 345 ± 17 nM | 10600 ± 1950 nM | – | – | around 45% | 97.1 ± 0.8% | > 90% | 96 ± 8 nM | 6.4 | 2.8 | 3.6 | slight increase | –
O=C(NO)c1ccc(CN2CCN(C(c3ccccc3)c3ccccc3)CC2)cc1 [Compound 9b, 4-(4-(diphenylmethyl)-piperazin-1-ylmethyl)-N-hydroxy-benzamide] | 708 ± 45 nM | 38100 nM | – | – | around 45% | 96.9 ± 0.3% | > 90% | 31 ± 4 nM | 47.5 | 112 and 111.8 | 23 | – | 38200 ± 3010 nM
